The target in experiment [1] is Recombinant SARS-CoV-2 3CL Protease (Severe acute respiratory syndrome coronavirus 2 (2019-nCoV) (SARS-CoV-2), UniProt P0DTD1). The experiment is described as follows: biochemical. It counts as biochemical. The settings on record: 50% SARS-CoV-2 3CL protease inhibitory concentration; read-out: IC50.
In the next experiment the test system is SARS-CoV-2. The experiment is described as follows: Cytopathic effect (CPE) suppression effect confirmation test using HEK293T/ACE2-TMPRSS2 cells. It counts as cell-based. The conditions noted are these: Severe acute respiratory syndrome coronavirus 2, HEK-293T. On the technique in general: Cytopathic effects are the visible damage that an infection or toxin causes in cultured cells.

[2] abbreviates: 72 h, read-out: EC50 (50% SARS-CoV-2 infected cell death inhibitory concentration), class, HEK293T/ACE2-TMPRSS2 cells, CPE suppression, CellTiter-Glo 2.0 after 3 days culture.
The mark [3] stands for this setting: 72 h, HEK293T/ACE2-TMPRSS2 cells, CPE suppression, CellTiter-Glo 2.0 after 3 days culture, read-out: EC50 (50% SARS-CoV-2 infected cell death inhibitory concentration), class.
Setting [4] is: 72 h, read-out: EC50 (50% SARS-CoV-2 infected cell death inhibitory concentration), HEK293T/ACE2-TMPRSS2 cells, CPE suppression, CellTiter-Glo 2.0 after 3 days culture.
The mark [5] stands for this setting: 50% SARS-CoV-2 infected cell death inhibitory concentration, HEK293T/ACE2-TMPRSS2 cells, read-out: EC50.

Values joined by “and” are separate entries in the source; they are usually repeats but may differ in a detail not shown here. Identical values can stand only once. Like-named read-outs stand apart in the source and are kept apart here.

On to `Cc1cncc(-n2c(=O)c(Cc3cc(F)c(F)c(F)c3)c(Cl)n(C(C)C#N)c2=O)c1` (racemic) [Compound I-046], for which the IC50 – broadly, the concentration that inhibits the measured activity by half – in experiment [1] is above 100 nM.
`Cc1cncc(-n2c(=O)c(Cc3cc(F)c(F)c(F)c3)c(-c3ccc(C)c(C)c3)n(C(F)C#N)c2=O)c1` (racemic) [Compound I-048]: in experiment [1], the IC50 was above 100 nM. Also, the EC50 in the experiment with SARS-CoV-2 (setting [2]) lay in the range of 1000 to 5000 nM.
For `CC(C)(C)OC(=O)C(C#N)n1c(N2CCC(C(F)(F)F)CC2)c(-c2ccc(F)c(Cl)c2)c(=O)n(-c2cncc(Cl)c2)c1=O` (racemic) [Compound I-050], the IC50 in experiment [1] was 10 to 100 nM. For the same compound, the EC50 in the experiment with SARS-CoV-2 (setting [3]) is below 100 nM.
`N#CCn1c(N2CCC3(CNC(=O)C3)C2)c(-c2ccc(F)c(Cl)c2)c(=O)n(-c2cnc3cc(Cl)ccn23)c1=O` (racemic) [Compound I-051]: the IC50 in experiment [1] was in the range of 10 to 100 nM. In addition, the EC50 in the experiment on SARS-CoV-2 (setting [3]) is 1000 to 5000 nM.
For the compound `Cc1cncc(-n2c(=O)c(Cc3cc(F)c(F)c(F)c3)c(N3CC4(CCOC4)C3)n(C(C)C#N)c2=O)c1` (racemic) [Compound I-054], the IC50 in experiment [1] is 10 to 100 nM. In addition, the EC50 with SARS-CoV-2 (setting [3]) is below 100 nM.
For `Cc1cncc(-n2c(=O)c(Cc3cc(F)c(F)c(F)c3)c(-c3ccc(C)c(C)c3)n(C(C#N)C(=O)O)c2=O)c1` (racemic) [Compound I-056], in that order: 10 to 100 nM and below 100 nM.
As to `Cc1cncc(-n2c(=O)c(Cc3cc(F)c(F)c(F)c3)c(-c3ccc(C)c(C)c3)n(C(C)C#N)c2=O)c1` (racemic) [Compound I-057], in experiment [1], the IC50 turned out to be 9.8 nM. Also, the EC50 with SARS-CoV-2 (setting [4]) is 29 nM.
Regarding `N#CCn1c(N2CCC3(CCC(=O)N3)C2)c(-c2ccc(F)c(Cl)c2)c(=O)n(-c2cncc(Cl)c2)c1=O` (racemic) [Compound I-061], the IC50 in experiment [1] is below 10 nM. Moreover, in the experiment on SARS-CoV-2 (setting [2]), the EC50 lay within 100 to 1000 nM.
Take `N#CCn1c(N2CC3CNC(=O)C3C2)c(-c2ccc(F)c(Cl)c2)c(=O)n(-c2cncc(Cl)c2)c1=O` (racemic) [Compound I-062]: in experiment [1], the IC50 is below 10 nM. Further, the EC50 with SARS-CoV-2 (setting [2]) is below 100 nM.
For `N#CCn1c(N2CCC3(CNC(=O)C3)C2)c(-c2ccc(F)c(Cl)c2)c(=O)n(-c2cncc(Cl)c2)c1=O` (racemic) [Compound I-063] the same measures were below 10 nM and 100 to 1000 nM.
As to `Cc1cncc(-n2c(=O)c(-c3ccc(F)c(Cl)c3)c(N3CCC4(CCOC4)C3)n(CC#N)c2=O)c1` (racemic) [Compound I-070], the IC50 in experiment [1] was below 10 nM. Moreover, in the experiment with SARS-CoV-2 (setting [2]), the EC50 is below 100 nM.
On to `Cc1cncc(N2C(=O)N(CC#N)CC3(CCOc4ccc(Cl)cc43)C2=O)c1` (racemic) [Compound I-088], for which the IC50 in experiment [1] came to 71 nM. Moreover, the EC50 in the experiment on SARS-CoV-2 (setting [4]) is 97.2 nM.
Turning to `Cc1cncc(-n2c(=O)c(Cc3cc(F)c(F)c(F)c3)c(N3CCC(C#N)C3)n(CC#N)c2=O)c1` (racemic) [Compound I-092], the 50% inhibitory concentration (IC50) in experiment [1] was 10 to 100 nM. For the same compound, in the experiment with SARS-CoV-2 (setting [3]), the EC50 was below 100 nM.
Turning to `Cc1cncc(-n2c(=O)c(Cc3cc(F)c(F)c(F)c3)c(N3CCC4(CCC(=O)N4)C3)n(CC#N)c2=O)c1` (racemic) [Compound I-094], the IC50 in experiment [1] was in the range of 10 to 100 nM. Also, the EC50 with SARS-CoV-2 (setting [3]) was in the range of 100 to 1000 nM.
For `Cc1cncc(-n2c(=O)c(Cc3cc(F)c(F)c(F)c3)c(N3CCC4(C3)NC(=O)NC4=O)n(CC#N)c2=O)c1` (racemic) [Compound I-095], the IC50 in experiment [1] was in the range of 10 to 100 nM. Besides, the EC50 with SARS-CoV-2 (setting [3]) fell in the range of 1000 to 5000 nM.
For `Cc1cncc(-n2c(=O)c(Cc3cc(F)c(F)c(F)c3)c(N3CCCC(C(F)(F)F)C3)n(CC#N)c2=O)c1` (racemic) [Compound I-097], the IC50 in experiment [1] is below 10 nM. The EC50 in the experiment on SARS-CoV-2 (setting [2]) is below 100 nM.
For `Cc1cncc(-n2c(=O)c(Cc3cc(F)c(F)c(F)c3)c(N3CCC(C(N)=O)C3)n(CC#N)c2=O)c1` (racemic) [Compound I-100], in that order: below 10 nM and below 100 nM.
`COC1CCN(c2c(Cc3cc(F)c(F)c(F)c3)c(=O)n(-c3cncc(C)c3)c(=O)n2CC#N)C1` (racemic) [Compound I-102]: the IC50 in experiment [1] is below 10 nM. Also, the EC50 in the experiment on SARS-CoV-2 (setting [2]) is below 100 nM.
Consider `Cc1cncc(-n2c(=O)c(Cc3cc(F)c(F)c(F)c3)c(N3CC4CC(F)(F)C4C3)n(CC#N)c2=O)c1` (racemic) [Compound I-103], for which the IC50 in experiment [1] is below 10 nM. In addition, in the experiment on SARS-CoV-2 (setting [2]), the EC50 was below 100 nM.
For `Cc1cncc(-n2c(=O)c(Cc3cc(F)c(F)c(F)c3)c(N3CCC(C(F)F)C3)n(CC#N)c2=O)c1` (racemic) [Compound I-107] the same measures were below 10 nM and below 100 nM.
For the compound `Cc1cncc(-n2c(=O)c(Cc3cc(F)c(F)c(F)c3)c(N3CCC(S(N)(=O)=O)C3)n(CC#N)c2=O)c1` (racemic) [Compound I-108], the IC50 in experiment [1] was below 10 nM. The EC50 in the experiment on SARS-CoV-2 (setting [2]) was in the range of 100 to 1000 nM.
As to `N#CCn1c(N2Cc3ccccc3C2)c(-c2cccc(Cl)c2)c(=O)n(C2CCn3cnnc32)c1=O` (racemic) [Compound I-121], in experiment [1], the IC50 is above 100 nM.
The same measure, in the same setting: in the case of `CC1(c2ccc(F)c(Cl)c2)CN(CC#N)C(=O)N(c2cncc(Cl)c2)C1=O` (racemic) [Compound I-283] it was < 10 nM and > 100 nM; in that of `N#CCn1c(N2CC3(CCOC3)C2)c(Cc2cc(F)c(F)c(F)c2)c(=O)n(CCC(N)=O)c1=O` [Compound I-001], above 100 nM; in that of `Cn1cnc(Cn2c(=O)c(Cc3cc(F)c(F)c(F)c3)c(N3Cc4cn[nH]c4C3)n(CC#N)c2=O)n1` [Compound I-002], above 100 nM.
Same read-out and setting: the same measure for `Cc1cncc(-n2c(=O)c(Cc3cc(F)c(F)c(F)c3)c(OC(C(F)(F)F)C(F)(F)F)n(CC#N)c2=O)c1` [Compound I-004]: above 100 nM; for `Cc1cncc(-n2c(=O)c(Cc3cc(F)c(F)c(F)c3)c(Cl)n(CC#N)c2=O)c1` [Compound I-013]: 10 to 100 nM.
Same read-out and setting: in the case of `Cc1cncc(-n2c(=O)c(-c3ccc(F)c(Cl)c3)c(-c3ccc(C(=O)O)cc3)n(CC#N)c2=O)c1` [Compound I-024] it was above 100 nM.
Turning to `N#CCn1c(N2CC3(C2)CC(F)(F)C3)c(-c2ccc(F)c(Cl)c2)c(=O)n(-c2cncc(Cl)c2)c1=O` [Compound I-077], the EC50 with SARS-CoV-2 (setting [4]) is 1.66 nM.
On to `N#CCn1c(N2CC(n3cccn3)C2)c(-c2ccc(F)c(Cl)c2)c(=O)n(-c2cncc(Cl)c2)c1=O` [Compound I-080], for which the IC50 in experiment [1] was below 10 nM.
On to `N#CCn1c(N2CCN(c3ccccc3)C(=O)C2)c(-c2ccc(F)c(Cl)c2)c(=O)n(-c2cncc(Cl)c2)c1=O` [Compound I-081], for which the IC50 in experiment [1] was above 100 nM.
On the same count and under the same terms, the same measure for `Cn1cnc(Cn2c(=O)c(Cc3cc(F)c(F)c(F)c3)c(N3CC4(CCOC4)C3)n(CC#N)c2=O)n1` [Compound I-089]: above 100 nM.
As for `Cc1cncc(-n2c(=O)c(Cc3cc(F)c(F)c(F)c3)c(N3C[C@@H]4[C@H](C3)C4(F)F)n(CC#N)c2=O)c1` [Compound I-099], in the experiment with SARS-CoV-2 (setting [3]), the EC50 was below 100 nM.
On to `Cc1cc(-n2c(=O)c(Cc3cc(F)c(F)c(F)c3)c(N3CC4(CCOC4)C3)n(CC#N)c2=O)cc(=O)[nH]1` [Compound I-123], for which the IC50 in experiment [1] was above 100 nM.
On the same count and under the same terms, the same measure for `N#CCn1c(Cl)c(-c2ccc(F)c(Cl)c2)c(=O)n(-c2cnc3ccc(F)cn23)c1=O` [Compound I-125]: above 100 nM; for `CC1(C)CN(c2c(-c3ccc(F)c(Cl)c3)c(=O)n(-c3cnc4cc(F)ccn34)c(=O)n2CC#N)C1` [Compound I-154]: below 10 nM; for `N#CCn1c(N2Cc3ccccc3C2)c(Cc2cc(F)c(F)c(F)c2)c(=O)n(-c2cncc(=O)[nH]2)c1=O` [Compound I-158]: 10 to 100 nM.
For `N#CCn1c(N2CC3(CCOC3)C2)c(-c2ccc(F)c(Cl)c2)c(=O)n(-c2cc(C(F)(F)F)[nH]c(=O)c2)c1=O` [Compound I-186], the IC50 in experiment [1] is 10 to 100 nM.
Regarding `N#CCn1c(N2CC3(CCOC3)C2)c(-c2ccc(F)c(Cl)c2)c(=O)n(-c2cc(Cl)[nH]c(=O)c2)c1=O` [Compound I-187], the IC50 in experiment [1] was 10 to 100 nM.
Turning to `Cc1cncc(-n2c(=O)c(-c3ccc(F)c(Cl)c3)c(N3CC4(CCOCC4)C3)n(CC#N)c2=O)n1` [Compound I-193], the EC50 in the experiment on SARS-CoV-2 (setting [3]) was below 100 nM.
As for `Cc1cncc(-n2c(=O)c(-c3ccc(F)c(Cl)c3)c(N3CCC(C(F)F)CC3)n(CC#N)c2=O)n1` [Compound I-194], the EC50 in the experiment on SARS-CoV-2 (setting [3]) is below 100 nM.
In the case of `N#CCn1c(N2CC3(C2)CC(F)(F)C3)c(-c2ccc(F)c(Cl)c2)c(=O)n(-c2cc(=O)cc(Br)[nH]2)c1=O` [Compound I-222], in experiment [1], the IC50 is above 100 nM.
For the compound `N#CCn1c(N2CCCC2)c(-c2ccc(F)c(Cl)c2)c(=O)n(-c2cncc(Cl)c2)c1=O` [Compound I-252], the IC50 in experiment [1] was below 10 nM.
Turning to `N#CCn1c(N2CCc3ccccc3C2)c(-c2ccc(F)c(Cl)c2)c(=O)n(-c2cncc(Cl)c2)c1=O` [Compound I-253], the EC50 with SARS-CoV-2 (setting [5]) is below 100 nM.
Regarding `N#CCn1c(N2CCCCC2)c(-c2ccc(F)c(Cl)c2)c(=O)n(-c2cncc(Cl)c2)c1=O` [Compound I-254], the IC50 in experiment [1] was below 10 nM.
Consider `Cc1cncc(-n2c(=O)c(-c3ccc(F)c(Cl)c3)c(-c3ccccc3)n(CC#N)c2=O)c1` [Compound I-268], for which the EC50 with SARS-CoV-2 (setting [5]) was below 100 nM.
On the same count and under the same terms, the same measure for `Cc1cncc(-n2c(=O)c(-c3ccc(F)c(Cl)c3)c(-c3ccc(C4CC4)nc3)n(CC#N)c2=O)c1` [Compound I-269]: below 100 nM.
Take `Cc1cc(-n2c(=O)c(-c3ccc(F)c(Cl)c3)c(Cl)n(CC#N)c2=O)c[n+]([O-])c1` [Compound I-277]: in experiment [1], the IC50 was above 100 nM.
Same read-out and setting: in the case of `N#CCn1c(N2CC3(CCOC3)C2)c(C2CCCCC2)c(=O)n(-c2cncc(Cl)c2)c1=O` [Compound I-285] it was above 100 nM.

(Values after US20250092056A1, “URACIL DERIVATIVES HAVING VIRUS REPLICATION INHIBITORY ACTIVITY AND PHARMACEUTICAL COMPOSITION COMPRISING THE SAME” (Shionogi & Co., Ltd., priority 2022, published 2025).)
